Like-named read-outs stand apart in the source and are kept apart here.
Target: T1, human GPBAR1 receptor (Homo sapiens, UniProt Q8TDU6)
T1 construct: expressed in transfected cells
T1 sequence (Q8TDU6 1-330): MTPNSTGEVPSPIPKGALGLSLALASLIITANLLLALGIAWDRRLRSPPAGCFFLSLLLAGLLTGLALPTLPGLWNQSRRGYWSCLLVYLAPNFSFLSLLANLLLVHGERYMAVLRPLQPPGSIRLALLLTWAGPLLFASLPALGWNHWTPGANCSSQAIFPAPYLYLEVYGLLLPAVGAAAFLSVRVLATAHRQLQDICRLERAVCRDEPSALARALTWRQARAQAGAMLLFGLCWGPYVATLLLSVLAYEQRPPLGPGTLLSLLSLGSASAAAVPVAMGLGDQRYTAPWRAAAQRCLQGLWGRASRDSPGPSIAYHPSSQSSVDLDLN
Experiment: functional cAMP assay in CHO-dhfr(minus) cells expressing human GPBAR1 receptors
Format: cell-based
Conditions: 30 min at 30° C.
How it was run: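 Agonist cAMP read-out: stable GPBAR1 CHO-dhfr− clone, 30 min compound exposure at 30° C following 30 min IBMX (1 mM) preincubation in Krebs Ringer bicarbonate. Time-resolved energy-transfer detection gives EC50; parental CHO cells serve as counter-screen.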

[1] = human EC50, functional cAMP assay
[2] = functional cAMP assay, read-out: human EC50

`Cc1cc(/C(C[C@H](c2ccc(N(C)CCO)cc2)c2ccccc2C)=N/O)ccn1` [Example 268, (E,R)-3-{4-[(2-Hydroxy-ethyl)-methyl-amino]-phenyl}-1-(2-methyl-pyridin-4-yl)-3-o-tolyl-propan-1-one oxime] showed an EC50 [1] of 0.013 µM.

In the case of `Cc1cc(/C(C[C@H](c2ccc([C@H]3CC[C@H](C(=O)O)CC3)cc2)c2ccc(Cl)cc2C)=N/O)ccn1` [Example 504, Trans-4-(4-((R,E)-1-(4-Chloro-2-methylphenyl)-3-(hydroxyimino)-3-(2-methylpyridin-4-yl)propyl)phenyl)cyclohexanecarboxylic acid], the EC50 [1] is reported as 0.028 µM.

Compound `O=C(O)c1ccc(-c2ccc(C(C/C(=N\O)c3ccncc3)c3ccccc3)cc2)cc1` (stereo not shown) [Example 77, 4′-{3-[(E)-Hydroxyimino]-1-phenyl-3-pyridin-4-yl-propyl}-biphenyl-4-carboxylic acid] has an EC50 [1] of 0.269 µM.

`COC1CN(c2ccc([C@@H](C/C(=N\O)c3ccnc(C)c3)c3ccccc3C)cc2)C1` [Example 270, (E,R)-3-[4-(3-Methoxy-azetidin-1-yl)-phenyl]-1-(2-methyl-pyridin-4-yl)-3-o-tolyl-propan-1-one oxime] was tested, and the EC50 [2] was 0.005 µM.

Work on `Cn1cc(/C(CC(c2ccc(Br)cc2)C2CCC2)=N/O)ccc1=O` (stereo not shown) [Example 179, 5-{3-(4-Bromo-phenyl)-3-cyclobutyl-1-[(E)-hydroxyimino]-propyl}-1-methyl-1H-pyridin-2-one] yielded an EC50 [1] of 0.165 µM.

With `Cn1cc(/C(CC(c2ccc(C(=O)NC3CCOCC3)c(F)c2)c2ccccc2Cl)=N/O)ccc1=O` (stereo not shown) [Example 219, (E)-4-(1-(2-Chlorophenyl)-3-(hydroxyimino)-3-(1-methyl-6-oxo-1,6-dihydropyridin-3-yl)propyl)-2-fluoro-N-(tetrahydro-2H-pyran-4-yl)benzamide] the EC50 [1] was 1.16 µM.

Work on `Cc1cc(=O)n(C)cc1/C(CC(c1ccc(Br)cc1)c1ccccc1C)=N/O` (stereo not shown) [Example 199, 5-{3-(4-Bromo-phenyl)-1-[(E)-hydroxyimino]-3-o-tolyl-propyl}-1,4-dimethyl-1H-pyridin-2-one] yielded an EC50 [1] of 0.023 µM.

`Cc1cc(C(CC(c2cccc(CCCO)c2)c2ccccc2C)=NO)ccn1` (racemic) [Example 107, 3-[3-(3-Hydroxy-propyl)-phenyl]-1-(2-methyl-pyridin-4-yl)-3-o-tolyl-propan-1-one oxime] was tested, and the EC50 [1] was 0.153 µM.

`Cc1ccccc1C(C/C(=N/O)c1ccncc1)c1ccc(-c2cncnc2)cc1` (single isomer, unassigned; (-)) [Example 37, (−)-(Z)-1-pyridin-4-yl-3-(4-pyrimidin-5-yl-phenyl)-3-o-tolyl-propan-1-one oxime] was tested, and the EC50 [1] was 2.2 µM.

For `Cc1cc(/C(CC(c2cccc(-c3ccc(C(=O)O)c(F)c3)c2)c2ccccc2C)=N/O)ccn1` (stereo not shown) [Example 101, 3-Fluoro-3′-[3-[(E)-hydroxyimino]-3-(2-methyl-pyridin-4-yl)-1-o-tolyl-propyl]-biphenyl-4-carboxylic acid], the EC50 [1] was 1.7 µM.

`Cc1ccccc1C(C/C(=N\O)c1ccc(=O)n(C)c1)c1ccc(C(=O)NCCS(C)(=O)=O)cc1` (stereo not shown) [Example 310, (E)-4-(3-(Hydroxyimino)-3-(1-methyl-6-oxo-1,6-dihydropyridin-3-yl)-1-o-tolylpropyl)-N-(2-(methylsulfonyl)ethyl)benzamide] showed an EC50 [1] of 0.153 µM.

`Cc1ccccc1C(CC(=NO)c1ccc2ncccc2c1)c1ccc(Br)cc1` (racemic) [Example 125, 3-(4-Bromo-phenyl)-1-quinolin-6-yl-3-o-tolyl-propan-1-one oxime] was tested, and the EC50 [1] was 2.21 µM.

`CS(=O)(=O)c1cccc(-c2ccc(C(C/C(=N\O)c3ccncc3)c3ccccc3)cc2)c1` (stereo not shown) [Example 19, (E)-3-(3′-Methanesulfonyl-biphenyl-4-yl)-3-phenyl-1-pyridin-4-yl-propan-1-one oxime] was tested, and the EC50 [2] was 0.355 µM.

For `Cn1cc(/C(CC(c2ccc(C(=O)NC3CC3)c(F)c2)c2ccccc2Cl)=N/O)ccc1=O` (stereo not shown) [Example 233, (E)-4-(1-(2-Chlorophenyl)-3-(hydroxyimino)-3-(1-methyl-6-oxo-1,6-dihydropyridin-3-yl)propyl)-N-cyclopropyl-2-fluorobenzamide], the EC50 [1] was 0.186 µM.

Compound `Cn1cc(/C(CC(c2ccc(F)cc2)c2ccc(Br)cc2)=N/O)ccc1=O` (stereo not shown) [Example 479, 5-{3-(4-Bromo-phenyl)-3-(4-fluoro-phenyl)-1-[(E)-hydroxyimino]-propyl}-1-methyl-1H-pyridin-2-one] has an EC50 [1] of 0.013 µM.

`CCOC(=O)C(C(=O)OCC)c1ccc([C@H](C/C(=N\O)c2ccnc(C)c2)c2ccccc2C)cc1` [Example 286, 2-{4-[(S)-3-[(E)-Hydroxyimino]-3-(2-methyl-pyridin-4-yl)-1-o-tolyl-propyl]-phenyl}-malonic acid diethyl ester] gave an EC50 [1] of 2.41 µM.

For `Cc1cc(C(CC(c2ccc(-c3ccc(C(=O)O)c(Cl)c3)cc2)c2ccccc2C)=NO)ccn1` (racemic) [Example 84, 3-Chloro-4′-[3-[hydroxyimino]-3-(2-methyl-pyridin-4-yl)-1-o-tolyl-propyl]-biphenyl-4-carboxylic acid], the EC50 [1] was 0.027 µM.

`Cc1cc(/C(C[C@H](c2ccc(N3CCS(=O)(=O)CC3)cc2)c2ccccc2C)=N/O)ccn1` [Example 271, (E,R)-3-[4-(1,1-Dioxo-1λ6-thiomorpholin-4-yl)-phenyl]-1-(2-methyl-pyridin-4-yl)-3-o-tolyl-propan-1-one oxime] showed an EC50 [1] of 0.011 µM.

Work on `Cc1cc(Cl)ccc1C(C/C(=N\O)c1ccc(=O)n(C)c1)c1ccc(C(=O)NCCS(C)(=O)=O)cc1` (stereo not shown) [Example 336, (E)-4-(1-(4-Chloro-2-methylphenyl)-3-(hydroxyimino)-3-(1-methyl-6-oxo-1,6-dihydropyridin-3-yl)propyl)-N-(2-(methylsulfonyl)ethyl)benzamide] yielded an EC50 [1] of 0.33 µM.

`Cc1cc(/C(C[C@H](c2ccc(-c3ccc(C(=O)O)cc3)cc2)c2ccc(F)cc2C)=N/O)ccn1` (single isomer, unassigned) [Example 397, (+)-4′-[1-(4-Fluoro-2-methyl-phenyl)-3-[(E)-hydroxyimino]-3-(2-methyl-pyridin-4-yl)-propyl]-biphenyl-4-carboxylic acid; compound with triethylamine 1:0.75] showed an EC50 [1] of 0.017 µM.

Work on `Cc1ccccc1C(C/C(=N\O)c1ccnc2cc(Cl)ccc12)c1ccc(Br)cc1` (stereo not shown) [Example 157, (E)-3-(4-Bromo-phenyl)-1-(7-chloro-quinolin-4-yl)-3-o-tolyl-propan-1-one oxime] yielded an EC50 [1] of 3.64 µM.

`Cc1cc(Cl)ccc1C(C/C(=N\O)c1ccc(=O)n(C)c1)c1ccc(-c2ccc(C(=O)NCC(=O)O)cc2)cc1` (single isomer, unassigned; (+)) [Example 256, (+)-({4′-[1-(4-Chloro-2-methyl-phenyl)-3-[(E)-hydroxyimino]-3-(1-methyl-6-oxo-1,6-dihydro-pyridin-3-yl)-propyl]-biphenyl-4-carbonyl}-amino)-acetic acid] was tested, and the EC50 [1] was 0.01 µM.

With `Cn1cc(/C(CC(c2ccc(-c3ccc(C(=O)O)cc3)cc2)c2ccc(F)cc2F)=N/O)ccc1=O` (stereo not shown) [Example 403, 4′-[1-(2,4-Difluoro-phenyl)-3-[(E)-hydroxyimino]-3-(1-methyl-6-oxo-1,6-dihydro-pyridin-3-yl)-propyl]-biphenyl-4-carboxylic acid] the EC50 [1] was 0.138 µM.

Work on `CC(=O)N1CCC(c2ccc([C@@H](C/C(=N\O)c3ccc(=O)n(C)c3)c3ccccc3C)cc2)CC1` [Example 508, (R,E)-5-(3-(4-(1-Acetylpiperidin-4-yl)phenyl)-1-(hydroxyimino)-3-o-tolylpropyl)-1-methylpyridin-2(1H)-one] yielded an EC50 [1] of 0.405 µM.

`Cc1ccc(C(C/C(=N\O)c2ccc(=O)n(C)c2)c2ccc(-c3ccc(C(=O)O)cc3)cc2)c(F)c1` (stereo not shown) [Example 411, (E)-4′-(1-(2-fluoro-4-methylphenyl)-3-(hydroxyimino)-3-(1-methyl-6-oxo-1,6-dihydropyridin-3-yl)propyl)biphenyl-4-carboxylic acid] was tested, and the EC50 [1] was 0.995 µM.

In the case of `Cc1ccccc1C(CC(=NO)c1ccncc1)c1cccc(Br)c1` (racemic) [Example 11, 3-(3-Bromo-phenyl)-1-pyridin-4-yl-3-o-tolyl-propan-1-one oxime], the EC50 [1] is reported as 0.04 µM.

In the case of `Cc1cc(Cl)ccc1C(C/C(=N\O)c1ccc(=O)n(C)c1)c1ccc(OC(C)C)c(F)c1` (stereo not shown) [Example 323, 5-{3-(4-Chloro-2-methyl-phenyl)-3-(3-fluoro-4-isopropoxy-phenyl)-1-[(E)-hydroxyimino]-propyl}-1-methyl-1H-pyridin-2-one], the EC50 [1] is reported as 0.179 µM.

Compound `OCc1ccc(-c2ccc(C(C/C(=N\O)c3ccncc3)c3ccccc3)cc2)cc1` (stereo not shown) [Example 27, (E)-3-(4′-Hydroxymethyl-biphenyl-4-yl)-3-phenyl-1-pyridin-4-yl-propan-1-one oxime] has an EC50 [1] of 0.092 µM.

Compound `Cc1cc(/C(C[C@H](c2ccc(C(=O)NC[C@H](C)O)cc2)c2ccccc2C)=N/O)ccn1` [Example 275, 4-[(R)-3-[(E)-Hydroxyimino]-3-(2-methyl-pyridin-4-yl)-1-o-tolyl-propyl]-N—((S)-2-hydroxy-propyl)-benzamide] has an EC50 [1] of 0.026 µM.

For `Cc1cc(C)cc(C(CC(=NO)c2ccncc2)c2ccc(N(C)C)cc2)c1` (racemic) [Example 18, 3-(4-Dimethylamino-phenyl)-3-(3,5-dimethyl-phenyl)-1-pyridin-4-yl-propan-1-one oxime], the EC50 [1] was 0.661 µM.

`CS(=O)(=O)c1ccc(-c2cccc(C(C/C(=N\O)c3ccncc3)c3ccccc3)c2)cc1` (stereo not shown) [Example 24, (E)-3-(4′-Methanesulfonyl-biphenyl-3-yl)-3-phenyl-1-pyridin-4-yl-propan-1-one oxime] was tested, and the EC50 [1] was 2.19 µM.

From patent publication US8765730B2 (Hoffmann-La Roche Inc, priority 2010, dated 2014)
